Data: PubChem BioAssay (NCI)
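96-well plates; 48 h exposure; 5 concentrations. Endpoints by linear interpolation between flanking doses. Not reached: highest tested concentration assigned. GI50: concentration for 50% inhibition of growth. TGI: total growth inhibition.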

Experiments:
Test in all cases: inhibition of tumour cell growth, NCI panel, 48 h
A498 renal = test system: A498 renal
BT-549 breast = test system: BT-549 breast
K-562 leukemia = test system: K-562 leukemia
KM12 colon = test system: KM12 colon
M14 melanoma = test system: M14 melanoma
MDA-MB-231 breast = test system: MDA-MB-231 breast
MDA-MB-435 = test system: MDA-MB-435
SR leukemia = test system: SR leukemia
SW-620 colon = test system: SW-620 colon
EKVX NSCLC = test system: EKVX NSCLC
IGROV1 ovarian = test system: IGROV1 ovarian
TK-10 renal = test system: TK-10 renal

Structure (SMILES) | TGI (A498 renal) [µM] | TGI (BT-549 breast) [µM] | TGI (K-562 leukemia) [µM] | TGI (KM12 colon) [µM] | TGI (M14 melanoma) [µM] | TGI (MDA-MB-231 breast) [µM] | TGI (MDA-MB-435) [µM] | TGI (SR leukemia) [µM] | TGI (SW-620 colon) [µM] | TGI (EKVX NSCLC) [µM] | TGI (IGROV1 ovarian) [µM] | TGI (TK-10 renal) [µM] | GI50 (K-562 leukemia) [µM]
O=C(O)c1ccc(C(c2c(O)c3ccccc3oc2=O)c2c(O)c3ccccc3oc2=O)cc1 | > 100 | > 100 | > 100 | > 100 | > 100 | > 100 | > 100 | > 100 | > 100 |  |  |  | 
O=[N+]([O-])c1cc(Cl)cc2cc(Cl)cnc12 | > 100 | > 100 | > 100 |  | > 100 | > 100 | > 100 | > 100 | > 100 | > 100 | 66.8 | > 100 | 
NC1=NNC2(C(N)=N1)c1ccccc1-c1ccccc12 |  | > 10 |  | > 10 | > 10 | > 10 | > 10 | > 10 | > 10 | > 10 | > 10 | > 10 | 
O=c1ccn2n1CCCCC2 | > 100 |  | > 100 | > 100 | > 100 | > 100 | > 100 | > 100 | > 100 | > 100 | > 100 | > 100 | 
COC(=O)C(Cc1ccccc1)OC(=O)C(N)CC(=O)O (stereo not given) |  | > 100 | > 100 |  | > 100 | > 100 | > 100 | > 100 | > 100 | > 100 | > 100 | > 100 | 
COc1ccc(/C=C/C(=O)N[C@@H]2C(=O)N3[C@@H]2SC(C)(C)[C@@H]3C(=O)O)cc1 | > 100 | > 100 | > 100 | > 100 | > 100 | > 100 | > 100 | > 100 | > 100 | > 100 |  | > 100 | 
O=C(Cc1ccc(Cl)c(Cl)c1)N(CCc1ccc(Cl)c(Cl)c1)CCN1CCCC1 | 3.45 | 7.04 | 3.66 | 3.67 | 3.56 | 3.26 | 3.38 | 2.98 |  | 3.78 | 3.27 | 3.22 | 
CC1(C)CN=C(Nc2cccc(C(F)(F)F)c2)S1 |  | > 100 | > 100 | > 100 | > 100 | 16.3 | > 100 | > 100 | > 100 | > 100 | > 100 | > 100 | 
c1cncc(-c2ncc3cccnc3n2)c1 | > 100 | > 100 | > 100 | > 100 |  | > 100 |  |  | > 100 | > 100 | > 100 | > 100 | 
N#CC(c1cc2c(cc1Br)OCO2)N1CCOCC1 (stereo not given) |  |  | 57.1 | > 100 | > 100 | > 100 | 18.4 | 60.3 | > 100 | > 100 | > 100 | > 100 | 
CCOP(=O)(C=C=C(C)C)OCC | > 100 |  | > 100 | > 100 | > 100 |  | > 100 | > 100 | > 100 | > 100 | > 100 | > 100 | 
O=C(CCc1cccc(O)c1)NCCc1ccc(O)cc1 | > 100 | > 100 | > 100 | > 100 | > 100 | > 100 | > 100 | > 100 |  | > 100 | > 100 | > 100 | 
CNC(=O)CCCN(C)C(=O)CCCCC(=O)N(C)C | > 100 | > 100 | > 100 | > 100 | > 100 | > 100 | > 100 |  | > 100 | > 100 | > 100 | > 100 | 
CN(CCCCN(C)CCc1ccc(Cl)c(Cl)c1)CCCCN1CCCC1 | 3.14 | 4.6 |  | 1.92 | 2.16 | 2.25 | 0.904 |  | 3.02 | 3.54 | 5.57 | 2.99 | 
CCN(CC)CCCNc1nc2ccccc2c2[nH]c3ccc(OC)cc3c12 | 5.27 |  | 3.44 | 2.03 | 3.1 | 3.29 | 2.99 | 5.95 | 2.37 | 3.31 | 3.72 | 5.55 | 
NS(=O)(=O)c1ccc(CNc2nc(-c3cccs3)nc3ccc(I)cc23)cc1 |  | 27.8 | > 100 | 23.7 | 28.4 |  | 27.8 | 42.8 | 83.8 | 29.3 | 30.6 | 28.1 | 36.7
CCOC(=O)[C@@]12CCC(C1=O)[C@](C)(O)C[C@@H]2c1ccccc1 |  | > 100 | > 100 | > 100 | > 100 | > 100 | 38.4 |  | > 100 | > 100 | > 100 | > 100 | 
N/N=C1/CCCc2nonc21 |  |  | > 100 | > 100 | > 100 | > 100 | > 100 | > 100 | > 100 | > 100 | > 100 | > 100 | 
COc1ccc2c(c1)N=C1CSC(c3cc([N+](=O)[O-])ccc3Cl)N1C2 (stereo not given) |  | 80.7 | > 100 | 46.3 | 86.8 | 50 | 47.6 | 70.1 | > 100 | 47.1 | > 100 | 55.4 | 
Cc1n[nH]c(=O)n1/N=C/c1c[nH]c2ccccc12 | > 100 | > 100 | > 100 | > 100 | > 100 | > 100 | > 100 | > 100 | > 100 | > 100 | > 100 |  | 
O=C(OCC1OC(c2nn[nH]n2)C(OC(=O)c2ccccc2)C1OC(=O)c1ccccc1)c1ccccc1 (stereo not given) | > 100 | > 100 | > 100 | > 100 |  |  | > 100 |  | > 100 | > 100 |  | > 100 | 

Structure (SMILES) | TGI (A498 renal) [µM] | TGI (BT-549 breast) [µM] | TGI (K-562 leukemia) [µM] | TGI (KM12 colon) [µM] | TGI (M14 melanoma) [µM] | TGI (MDA-MB-231 breast) [µM] | TGI (MDA-MB-435) [µM] | TGI (SR leukemia) [µM] | TGI (SW-620 colon) [µM] | TGI (EKVX NSCLC) [µM] | TGI (IGROV1 ovarian) [µM] | TGI (TK-10 renal) [µM] | GI50 (K-562 leukemia) [µM]
CCOC(=O)NC(NC(C)CC)(C(F)(F)F)C(F)(F)F (stereo not given) | > 100 |  | > 100 | > 100 | > 100 | > 100 | > 100 | > 100 | > 100 | > 100 | > 100 | > 100 | 
Cn1c2ccccc2c(=NNc2ccccc2C(=O)O)c2ccccc21 |  | 61 | 28.5 | 42.2 | 53.5 | 59.1 | 39.6 | 44.6 | 84.8 | 38 | 94.3 | 75.2 | 
CCOC(=O)C1=c2[nH]c3cccc4cccc(c43)n2C=C(C(C)=O)C1CC(C)=O (stereo not given) | > 100 | > 100 | > 100 | > 100 | > 100 |  | > 100 | > 100 | > 100 | > 100 | > 100 | > 100 | 
COC(=O)CCn1cnc2c(SC)ncnc21 | > 100 |  | > 100 | > 100 | > 100 | > 100 | > 100 | > 100 | > 100 | > 100 | > 100 | > 100 | 
CC(CO)C1=CC(C#CCOCc2ccccc2)N(C(=O)Oc2ccccc2)c2ccccc21 (stereo not given) | 24.2 |  | > 100 | 82.9 | > 100 | > 100 | 47.9 | > 100 | > 100 | 73 | > 100 | > 100 | 
COc1cc([C@@H]2c3[nH]c4ccccc4c3C(Nc3ccc([N+](=O)[O-])cc3)[C@H]3COC(=O)N23)cc(OC)c1O (stereo not given in full) | 0.653 | 4.87 | 6.97 | 2.71 | 2.2 | 0.648 | 2.45 |  |  | 17 | 2.86 | 0.754 | 
CN(C)c1nc(NN)c2c(-c3ccccc3)c(-c3ccccc3)oc2n1 | > 100 |  | > 100 | > 100 | > 100 | > 100 | > 100 | > 100 | > 100 | > 100 | > 100 | > 100 | 
O=C(/C=C/c1ccco1)CC(=O)/C=C/c1ccco1 | 36.7 | 55.4 | 26.7 | > 55.2 | > 31.6 |  | 22.1 | 17.4 | 17.1 | > 31.6 | > 31.6 | 61.2 | 
N#CCCN(CCC#N)c1ccc(/C=C2\N=C(c3ccccc3)N(c3ccccn3)C2=O)cc1 | > 100 | > 100 | > 100 | > 100 | > 100 | > 100 | > 100 |  | > 100 | > 100 | > 100 | > 100 | 
O=C1CC2(CCNCC2)C(=O)N1N1CCCC1 |  | > 100 | > 100 | > 100 | > 100 | > 100 | > 100 | > 100 | > 100 | > 100 | > 100 | > 100 | 
O=[N+]([O-])c1cc(-[n+]2cc([O-])on2)ccc1F |  | 31.3 | > 100 | 31.5 | 29.6 | 38 | 29.8 | > 100 | 38.3 | 34.8 | 28.3 | 33.1 | 
CC(NC(=O)OC(C)(C)C)C(=O)C(N)=O (stereo not given) | > 100 |  | > 100 |  | > 100 | > 100 | > 100 | > 100 | > 100 | > 100 |  | > 100 | 
ClC1=C(Cc2ccccc2)Cc2ccc3c(c21)CCC3 |  | 67.5 | 76 | 39.2 | > 100 | 57.3 | 75.6 | 36.9 | > 100 | > 100 | > 100 | > 100 | 
O=C(NCCO)Nc1c(C(F)(F)F)cc(-c2ccccc2)[nH]c1=O | > 100 | > 100 | > 100 | > 100 | > 100 | > 100 | > 100 |  | > 100 | > 100 | > 100 | > 100 | 
c1ccc(/N=N/Nc2ccc(-c3nc4ccccc4[nH]3)cc2)nc1 | > 100 | > 100 | 31.8 | 30.7 | > 100 | 25.1 | 45.7 |  | 71.5 | 52.8 | 28 | 35.6 | 
O=c1[nH]nc(Cc2ccc(Cl)cc2)n1/N=C\c1ccc(/C=N/n2c(Cc3ccc(Cl)cc3)n[nH]c2=O)cc1 | > 100 | > 100 | > 100 | > 100 | > 100 | 70.5 | > 100 |  | > 100 | > 100 | > 100 | > 100 | 
Cc1[nH]c(=O)nc(NCCNCCO)c1C(=O)Nc1c2ccccc2nc2ccccc12 | > 100 |  | > 100 | > 100 | > 100 | > 100 | > 100 |  | > 100 | > 100 | > 100 | > 100 | 
COc1nc2sc3c(c2c(=O)n1CCCSSCCCn1c(OC)nc2sc4c(c2c1=O)CCCC4)CCCC3 |  |  | > 100 | > 100 | > 100 | > 100 | > 100 |  |  | > 100 | > 100 | > 100 | 
CC(C)NCC(O)c1ccc(OCc2ccccc2)c(OCc2ccccc2)c1-c1ccccc1 (stereo not given) | 11.6 |  |  |  |  | 3.16 |  |  | 3.13 | 32.3 | 2.71 | 3.9 | 
CCOC(=O)c1c(-c2ccc(OC)cc2)c(C#N)c(=S)n(C2OC(CO)C(O)C(O)C2O)c1-c1ccccc1 (stereo not given) |  | > 100 | > 100 | > 100 | > 100 | > 100 | 95.9 | > 100 | > 100 |  | > 100 | > 100 | 
CC(=O)OCC1OC(n2c(N)c(C#N)c(-c3ccc(C)cc3)c(C#N)c2=S)C(OC(C)=O)C(OC(C)=O)C1OC(C)=O (stereo not given) | > 100 | > 100 | > 100 | > 100 | 30 | > 100 | 79.3 |  | > 100 | 34.7 | 45.4 | 37.9 | 
